Like-named read-outs stand apart in the source and are kept apart here.
Experiments:
[1] = molecular target: T1, REC20 serotonin receptor (5-HT6) (Rattus norvegicus, UniProt P32305); assay: [125I]-LSD competition binding to membranes of CosM6 cells expressing REC20
T1 construct: encodes a putative protein of 435 amino acids; expressed in transfected cells; host or cells: CosM6 (subclone of COS-7), transient, vector pCMV4

[2] = molecular target: T2, MR77 serotonin receptor (5-HT1E-Like) (Rattus norvegicus, UniProt P30940); assay: [125I]-LSD competition binding to membranes of CosM6 cells expressing MR77
T2 construct: expressed in transfected cells; host or cells: CosM6 (subclone of COS-7), transient, vector pCMV4
T2 sequence (P30940 1-366): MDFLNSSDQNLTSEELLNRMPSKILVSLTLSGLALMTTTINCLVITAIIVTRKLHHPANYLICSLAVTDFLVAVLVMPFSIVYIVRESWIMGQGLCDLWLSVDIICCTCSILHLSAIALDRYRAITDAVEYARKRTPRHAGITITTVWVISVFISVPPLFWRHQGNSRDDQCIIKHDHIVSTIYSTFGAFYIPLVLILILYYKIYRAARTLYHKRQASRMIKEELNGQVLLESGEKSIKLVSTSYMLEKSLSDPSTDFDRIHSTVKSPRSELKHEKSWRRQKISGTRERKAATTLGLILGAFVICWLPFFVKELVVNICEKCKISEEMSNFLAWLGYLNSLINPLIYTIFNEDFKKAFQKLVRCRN

[3] = molecular target: T3, MR22 serotonin receptor (5-HT5β) (Rattus norvegicus, UniProt P35365); assay: [125I]-LSD competition binding to membranes of CosM6 cells expressing MR22
T3 construct: contains an open reading frame (ORF) encoding 370 amino acids; expressed in transfected cells; host or cells: CosM6 (subclone of COS-7), transient, vector pCMV4

[4] = molecular target: T4, REC17 serotonin receptor (5-HT5α) (Rattus norvegicus, UniProt P35364); assay: [125I]-LSD competition binding to membranes of CosM6 cells expressing REC17
T4 construct: contains an ORF encoding 357 amino acids; expressed in transfected cells; host or cells: CosM6 (subclone of COS-7), transient, vector pCMV4

[5] = test system: suprachiasmatic nucleus (SCN) neuronal activity; assay: Effects of serotonergic agents on circadian rhythm of neuronal activity in suprachiasmatic nucleus slices; details: for effect of antagonist on the 8-OH-DPAT-dependent phase shift: antagonist 15 min before, during and 15 min after 1 hour 8-OH-DPAT
Protocol: This was followed by the normal perfusion medium. Horizontal bars: time of lights-off in donor colony; vertical bars: time of treatment; dotted line: mean time of peak in untreated slices.
The effects of serotinergic agents on the neuronal activity as measured against circadian time in the suprachiasmatic nucleus (SCN) were measured. […] This was followed by the normal perfusion medium.

[6] = CosM6 membranes, 1 nM [125I]-LSD, 60 min 37° C., read-out: IC50 for competition with 125I-LSD, Rec20
[7] = CosM6 membranes, 1 nM [125I]-LSD, 60 min 37° C., read-out: IC50 for competition with 125I-LSD, MR77

T4 sequence (P35364 whole entry): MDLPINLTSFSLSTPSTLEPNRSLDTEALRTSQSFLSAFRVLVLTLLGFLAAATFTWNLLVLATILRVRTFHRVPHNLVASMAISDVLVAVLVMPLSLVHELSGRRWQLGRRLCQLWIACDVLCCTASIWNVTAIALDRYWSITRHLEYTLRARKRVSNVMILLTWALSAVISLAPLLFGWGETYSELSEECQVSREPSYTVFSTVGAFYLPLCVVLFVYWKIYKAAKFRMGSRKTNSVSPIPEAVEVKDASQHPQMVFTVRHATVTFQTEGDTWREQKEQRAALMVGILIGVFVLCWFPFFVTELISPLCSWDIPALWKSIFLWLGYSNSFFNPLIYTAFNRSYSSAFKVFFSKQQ
T3 sequence (P35365 whole entry S4C/P322A): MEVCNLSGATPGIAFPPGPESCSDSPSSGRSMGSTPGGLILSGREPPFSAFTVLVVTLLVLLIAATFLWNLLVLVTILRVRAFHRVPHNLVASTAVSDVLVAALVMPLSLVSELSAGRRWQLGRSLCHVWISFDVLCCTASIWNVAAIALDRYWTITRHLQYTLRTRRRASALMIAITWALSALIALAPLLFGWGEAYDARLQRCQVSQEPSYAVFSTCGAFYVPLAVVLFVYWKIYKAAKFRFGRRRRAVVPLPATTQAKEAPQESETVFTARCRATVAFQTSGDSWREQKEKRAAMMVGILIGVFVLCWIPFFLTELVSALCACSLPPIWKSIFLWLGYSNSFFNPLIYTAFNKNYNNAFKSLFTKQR
T1 sequence (P32305 1-435): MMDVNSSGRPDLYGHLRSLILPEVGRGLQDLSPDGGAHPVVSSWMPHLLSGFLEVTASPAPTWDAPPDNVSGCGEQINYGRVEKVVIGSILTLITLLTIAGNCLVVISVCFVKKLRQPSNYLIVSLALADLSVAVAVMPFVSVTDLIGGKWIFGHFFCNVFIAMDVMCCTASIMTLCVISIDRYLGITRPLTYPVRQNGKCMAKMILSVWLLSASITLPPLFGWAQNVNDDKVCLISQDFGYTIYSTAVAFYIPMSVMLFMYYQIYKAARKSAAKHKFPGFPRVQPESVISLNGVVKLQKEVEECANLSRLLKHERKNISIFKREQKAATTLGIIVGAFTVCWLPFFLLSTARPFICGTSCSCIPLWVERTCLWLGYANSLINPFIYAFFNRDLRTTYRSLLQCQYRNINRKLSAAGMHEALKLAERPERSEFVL

| Structure (SMILES) | IC50 [3] | sensitivity of MR22 to the ligand (in words) [3] | IC50 [1, 6] | IC50 [2, 7] | IC50 [4] | other results |
| --- | --- | --- | --- | --- | --- | --- |
| CN1C[C@H](C(=O)N[C@]2(C)O[C@@]3(O)[C@@H]4CCCN4C(=O)[C@H](Cc4ccccc4)N3C2=O)C=C2c3cccc4[nH]cc(c34)C[C@H]21 [Ergotamine] | 22 nM | sensitive | – | – | – | IC50 [1]: 33 nM; IC50 [2]: 55 nM |
| NCCc1c[nH]c2ccc(C(N)=O)cc12 [Ligand 5-CT, 5-carboxyamidotryptamine] | 285 nM | sensitive | 0.8 nM | > 1000 nM | 20.4 nM | sensitivity of radiolabeled LSD binding to REC20 to the ligand (in words) [1]: displace; sensitivity of radiolabeled LSD binding to MR77 to the ligand (in words) [2]: insenstive; sensitivity of REC17 to the ligand (in words) [4]: sensitive |
| NCCc1c[nH]c2ccc(O)cc12 [Ligand 5-HT, 5-hydroxytryptamine] | – | – | – | 70 nM | 380 nM | – |
| CCCN(CCC)C1CCc2cccc(O)c2C1 (stereo not drawn) [Ligand 8-OH-DPAT] | > 1000 nM | insensitive | 97 nM | – | > 1000 nM | sensitivity of radiolabeled LSD binding to REC20 to the ligand (in words) [1]: displace; sensitivity of radiolabeled LSD binding to MR77 to the ligand (in words) [2]: insenstive; sensitivity of REC17 to the ligand (in words) [4]: insensitive; phase advance in the circadian rhythm of spontaneous neuronal activity in the SCN ([5]; slice bath treatment for 1 hour): 2 to 3 h |
| CN1C[C@@H](NS(=O)(=O)N(C)C)C[C@@H]2c3cccc4c3c(cn4C)C[C@H]21 [Mesulergine] | > 1000 nM | – | 17 nM | > 1000 nM | > 1000 nM | – |
| CN1C[C@H](CNC(=O)OCc2ccccc2)C[C@@H]2c3cccc4c3c(cn4C)C[C@H]21 [Metergoline] | > 1000 nM | – | 17 nM | 535 nM | > 1000 nM | – |
| CSc1ccc2c(c1)C(N1CCN(C)CC1)Cc1ccccc1S2 (stereo not drawn) [Methiothepin] | – | sensitive | – | > 1000 nM | 45 nM | sensitivity of REC17 to the ligand (in words) [4]: sensitive |
| CC[C@@H](CO)NC(=O)[C@@H]1C=C2c3cccc4c3c(cn4C)C[C@H]2N(C)C1 [Methysergide] | > 1000 nM | – | – | – | 310 nM | IC50 [1]: 32 nM; IC50 [2]: 14 nM |
| CC(C)NCC(O)COc1cccc2[nH]ccc12 (stereo not drawn) [Pindolol] | – | – | > 1000 nM | – | – | effect of antagonist on the 8-OH-DPAT-dependent phase shift [5]: has no effect |
| Cc1nc2sccn2c(=O)c1CCN1CCC(=C(c2ccc(F)cc2)c2ccc(F)cc2)CC1 [Ritanserin] | – | – | 60 nM | – | – | effect of antagonist on the 8-OH-DPAT-dependent phase shift [5]: blocks |
| CNS(=O)(=O)Cc1ccc2[nH]cc(CCN(C)C)c2c1 [Sumatriptan] | > 1000 nM | insensitive | > 1000 nM | – | > 1000 nM | sensitivity of radiolabeled LSD binding to MR77 to the ligand (in words) [2]: sensitive; sensitivity of REC17 to the ligand (in words) [4]: insensitive |
| COC(=O)[C@@H]1[C@H]2C[C@H]3c4[nH]c5ccccc5c4CCN3C[C@@H]2CC[C@@H]1O [Yohimbine] | – | – | – | 570 nM | – | – |
| CCN(CC)C(=O)[C@@H]1C=C2c3cccc4[nH]c([125I])c(c34)C[C@H]2N(C)C1 [[^125 I]-LSD] | – | – | – | – | – | binding of [125I]-LSD to REC20 broken cell preparations (in words) ([1]; transfected CosM6 cells): saturable binding; binding of [125I]-LSD to MR77 broken cell preparations (in words) ([2]; transfected CosM6 cells): saturable binding; binding of [125I]-LSD to MR22 broken cell preparations (in words) ([3]; transfected CosM6 cells): saturable binding; binding of [125I]-LSD to REC17 broken cell preparations (in words) ([4]; transfected CosM6 cells): saturable binding |
| O=C(c1ccc(F)cc1)C1CCN(CCn2c(=O)[nH]c3ccccc3c2=O)CC1 [ketanserin] | – | – | – | – | – | sensitivity of radiolabeled LSD binding to REC20 to the ligand (in words) [1]: sensitive |

— patent US5968817A, “DNA encoding serotonin receptors” (priority 1993, dated 1999)
